Source: ChEMBL document CHEMBL4270553, “Synthesis and anticancer activity of new dihydropyrimidinone derivatives” (Eur J Med Chem, 2018)

Experiments:
[1] = target: Kinesin-like protein KIF11 (Homo sapiens, UniProt P52732); experiment: Inhibition of human Eg5
[2] = tested on: NCI-H1299; experiment: Cytotoxicity against human NCI-H1299 cells after 24 hrs by MTT assay; type: functional, cell-based; details: NCI-H1299, 24 h
[3] = tested on: PC-3; experiment: cells; details: Homo sapiens, PC-3, 24 h
Description: Cytotoxicity against human PC3 cells after 24 hrs by MTT assay

Sequence of Kinesin-like protein KIF11 (P52732 whole entry): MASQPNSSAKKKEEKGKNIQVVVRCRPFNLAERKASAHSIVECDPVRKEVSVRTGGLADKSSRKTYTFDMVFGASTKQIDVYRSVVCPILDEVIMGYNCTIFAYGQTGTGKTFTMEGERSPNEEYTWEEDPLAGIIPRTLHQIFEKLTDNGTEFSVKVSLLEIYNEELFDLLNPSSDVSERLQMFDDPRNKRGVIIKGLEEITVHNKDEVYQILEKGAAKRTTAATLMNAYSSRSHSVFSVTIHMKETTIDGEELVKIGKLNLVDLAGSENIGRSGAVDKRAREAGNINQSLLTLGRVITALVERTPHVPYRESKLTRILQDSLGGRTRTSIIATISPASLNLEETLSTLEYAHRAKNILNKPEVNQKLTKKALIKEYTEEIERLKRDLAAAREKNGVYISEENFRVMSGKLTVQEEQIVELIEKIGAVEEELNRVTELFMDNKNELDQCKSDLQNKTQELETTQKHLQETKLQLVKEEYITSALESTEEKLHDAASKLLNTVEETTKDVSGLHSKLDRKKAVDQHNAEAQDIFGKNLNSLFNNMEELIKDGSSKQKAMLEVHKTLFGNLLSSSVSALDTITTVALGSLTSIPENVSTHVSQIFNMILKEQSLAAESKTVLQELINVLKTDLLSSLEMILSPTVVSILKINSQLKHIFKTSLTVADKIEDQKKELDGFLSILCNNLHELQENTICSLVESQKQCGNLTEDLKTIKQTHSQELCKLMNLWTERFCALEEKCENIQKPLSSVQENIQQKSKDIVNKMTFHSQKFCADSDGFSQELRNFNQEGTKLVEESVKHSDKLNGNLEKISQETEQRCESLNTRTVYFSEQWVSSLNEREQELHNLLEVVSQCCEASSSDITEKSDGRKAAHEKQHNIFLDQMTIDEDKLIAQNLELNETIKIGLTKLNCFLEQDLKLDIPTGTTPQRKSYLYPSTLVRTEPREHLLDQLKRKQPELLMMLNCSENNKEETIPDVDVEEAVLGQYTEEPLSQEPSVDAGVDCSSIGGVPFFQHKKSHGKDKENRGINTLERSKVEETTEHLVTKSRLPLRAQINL

Row | Structure (SMILES) | IC50 [1] [µM] | IC50 [2] [µM] | IC50 [3] [µM]
1 | CCOC(=O)C1=C(C)NC(=O)NC1c1cccc(O)c1 (stereo not drawn) | 14 |  | 
2 | CCOC(=O)C1=C(C)Nc2nc3ccccc3n2C1c1c(O)ccc2ccccc12 (stereo not drawn) |  | 40 | 37
